{"source": "patent US8613929B2", "about": "“Methods and compositions for targeting agents into and across the blood-brain barrier and other endothelial cell microvascular barriers” (priority 2003, dated 2013)", "key": {"[1]": {"tested_on": "BCEC+ astrocyte co-cultures", "conditions": "FIG. 2; earlier experiments (Gaillard 2000a); cited from earlier work"}, "brain cortex [2]": {"tested_on": "brain cortex", "assay": "In vivo brain distribution: HRP activity in brain cortex homogenate samples", "parameters": "species or system Guinea pigs", "conditions": "1.5 h after intracarotid bolus injection, 500 microgram/ml HRP equivalent in 0.5 ml saline (FIG. 18)", "experimental": "Brain uptake of CRM197 or holo-transferrin (TrF) conjugated to HRP (2:1 weight/weight ratio) was determined 1.5 h after an intracarotid bolus injection of the conjugates (corresponding to a concentration of 500 microgram/ml in 0.5 ml saline of un-conjugated HRP), and compared to an equal concentration of free HRP, in young male Guinea pigs (Dunkin-Hartley HsdPoc:HD, 250-300 g). The proteins were conjugated to HRP by means of a HRP conjugation kit according to the manufacturers instructions (α Diagnostic International, San Antonio, Tex., USA). In addition, conjugated proteins were further purified on a HiPrep 16/60 column packed with Sephacryl S-200 HR matrix (Amersham Biosciences, UK). Briefly, the animals were anesthetized with isoflurane inhalation (4% induction, 1-1.5% maintenance) in an air/oxygen mixture (2:1). A cannula was placed in the carotid artery for blood sample collection and drug administration. […]\nThe cortex of perfused brains (and one non-perfused control brain) was dissected and weighted. […] Tissue/cells were lysed by an aqueous solution of 0.1% Na-deoxycholate (final concentration) before the HRP activity was detected in the clear supernatant of the spun-down homogenates using a standard colorimetric assay with the appropriate calibration curves and corrections for dilutions and protein content of the supernatants."}, "brain cortex [3]": {"tested_on": "brain cortex", "conditions": "1.5 h after intracarotid bolus injection (FIG. 19)"}, "brain": {"tested_on": "brain", "conditions": "guinea pig, in vivo"}, "LPSS14 (DTR)": {"target": "LPSS14 (DTR) (Bos taurus, UniProt E1BIN8)", "sequence (E1BIN8 24-208 limits assumed)": "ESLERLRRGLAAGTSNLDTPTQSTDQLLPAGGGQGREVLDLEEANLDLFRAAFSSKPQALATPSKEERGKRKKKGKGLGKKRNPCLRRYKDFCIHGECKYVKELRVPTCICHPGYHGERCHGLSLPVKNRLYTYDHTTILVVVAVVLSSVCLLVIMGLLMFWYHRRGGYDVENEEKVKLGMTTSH", "assay_type": "cell-based, bovine"}}}
{"compound": "C[C@@H]1C[C@@H]([C@H](O)CC2CC(=O)NC(=O)C2)C(=O)[C@@H](C)C1", "note": "[cycloheximide]", "values": [{"measurement": "recovery of BCEC+ astrocyte co-cultures from LPS", "setting": "[1]", "value": "completely inhibit the recovery phase"}]}
{"compound": "free HRP: un-conjugated horseradish peroxidase, a 40 kDa enzyme", "values": [{"measurement": "HRP activity in brain cortex homogenate samples (homogenate, parenchyma, capillaries)", "setting": "brain cortex [2]", "value": "below the detection limit"}, {"measurement": "TMB staining of cryosections of well-perfused brains", "setting": "brain cortex [3]", "value": "no visible staining"}, {"measurement": "staining for CRM197 by immunohistochemistry for diphtheria toxin", "setting": "brain", "value": "not observed"}]}
{"compound": "heparin", "values": [{"measurement": "toxicity consistent with a higher concentration of DT", "setting": "LPSS14 (DTR); heparin 125 microgram/ml 1 h pretreatment, 100 ng/ml DT", "value": 10, "unit": "fold"}, {"measurement": "DT toxic effect took place earlier than untreated controls", "setting": "LPSS14 (DTR); heparin 125 microgram/ml 1 h pretreatment, 100 ng/ml DT (FIG. 9)", "value": "about 1 hour"}, {"measurement": "toxic effect after apical exposure to 100 ng/ml DT on pretreated BCEC", "setting": "LPSS14 (DTR); pretreatment: CRM197 5 microgram/ml 1 h, heparin 125 microgram/ml 1 h, LPS 1 microgram/ml 2 h, BB94 10 micromolar 1 h (FIG. 8-10)", "value": "increased"}]}
